The results in this text go back to ChEMBL document CHEMBL4680118, “Cerpegin-derived furo[3,4-c]pyridine-3,4(1H,5H)-diones enhance cellular response to interferons by de novo pyrimidine biosynthesis inhibition” (Eur J Med Chem, 2020).

In assay [1] the target is T1, Dihydroorotate dehydrogenase (quinone), mitochondrial (Homo sapiens, UniProt Q02127). As to the kind of experiment: Inhibition of DHODH in human HEK-293 cells transfected with ISRE-luciferase reporter gene assessed as increase in IFN-alpha mediated cellular response after 24 hrs by luciferase reporter gene assay. For orientation: Reporter assays use an easily measured gene product as a stand-in for the process of interest.
T1 sequence (Q02127 whole entry): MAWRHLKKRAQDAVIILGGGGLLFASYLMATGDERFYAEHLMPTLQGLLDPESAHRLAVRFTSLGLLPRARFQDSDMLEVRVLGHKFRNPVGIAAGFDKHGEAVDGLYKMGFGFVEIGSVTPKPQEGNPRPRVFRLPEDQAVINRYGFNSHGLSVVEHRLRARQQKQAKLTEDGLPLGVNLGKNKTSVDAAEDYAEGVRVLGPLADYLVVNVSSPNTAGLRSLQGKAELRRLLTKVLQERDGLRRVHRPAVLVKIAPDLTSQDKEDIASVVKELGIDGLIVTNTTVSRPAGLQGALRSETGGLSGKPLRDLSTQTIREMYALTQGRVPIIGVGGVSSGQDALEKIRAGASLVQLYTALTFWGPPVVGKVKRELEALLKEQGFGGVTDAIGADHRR

Assay [2] has as its target T1, Dihydroorotate dehydrogenase (quinone), mitochondrial. As to the kind of experiment: Inhibition of DHODH in human HEK-293 cells transfected with ISRE-luciferase reporter gene assessed as increase in IFN-alpha mediated cellular response at 6 to 178 uM after 24 hrs by luciferase reporter gene assay. It counts as cell-based. Particulars: HEK293, dose 6-178 µM.

SMILES strings stand for the structures. Activity calls are given as the source filed them. The calls are words filed in the database; no cut-off is given here. Bounds are passed on as bounds.

On to `O=C1OC2(CCCC2)c2ccn(C3CC3)c(=O)c21`, for which the EC50 in assay [1] (read-out: pEC50 (converted)) was 52.5 µM.

Regarding `CC1(C)OC(=O)c2c1ccn(C1CC1)c2=O`, in assay [1] (read-out: pEC50 (converted)), the EC50 is above 158 µM.

As to `CCC1(CC)OC(=O)c2c1ccn(C1CC1)c2=O`, in assay [1] (read-out: pEC50 (converted)), the EC50 was above 158 µM.

In the case of `Cn1ccc2c(c1=O)C(=O)OC21CCCCC1`, the EC50 in assay [1] (read-out: pEC50 (converted)) was above 158 µM.

For `O=C1OC2(CCCCC2)c2ccn(C3CCC3)c(=O)c21`, the EC50 in assay [1] (read-out: pEC50 (converted)) is above 158 µM.

`O=C1OC2(CCCCC2)c2ccn(C3CCCC3)c(=O)c21`: the EC50 in assay [1] (read-out: pEC50 (converted)) is above 158 µM.

`CC1(C)OC(=O)c2c1ccnc2O`: the EC50 in assay [1] (read-out: pEC50 (converted)) is above 158 µM.

Take `O=C1OC2(CCCCC2)c2ccn(C3CCCCC3)c(=O)c21`: in assay [1] (read-out: pEC50 (converted)), the EC50 is above 158 µM.

For `CC1(c2ccccc2)OC(=O)c2c1ccn(C1CC1)c2=O` (stereo not given), the result in assay [2] was Active. Moreover, the EC50 in assay [1] (read-out: EC50) came to 27 µM.

Consider `CCC1(C)OC(=O)c2c1ccn(C1CC1)c2=O` (stereo not given), for which the EC50 in assay [1] (read-out: pEC50 (converted)) is above 158 µM.

With `CC1=C(C(=O)NC2CC2)C(=O)OC12CCCCC2`, the EC50 in assay [1] (read-out: pEC50 (converted)) is above 158 µM.

As for `CC(C)n1ccc2c(c1=O)C(=O)OC21CCCCC1`, the EC50 in assay [1] (read-out: pEC50 (converted)) is above 158 µM.

For `O=C1OC2(CCCCC2)c2ccn(CC3CC3)c(=O)c21`, in assay [1] (read-out: pEC50 (converted)), the EC50 was above 158 µM.

For the molecule `O=C1OC2(CCCCC2)c2ccnc(O)c21`, in assay [1] (read-out: pEC50 (converted)), the EC50 was above 158 µM.
